According to ChEMBL document CHEMBL3046325, “Synthesis, computational studies, and preliminary pharmacological evaluation of new arylpiperazines as potential antipsychotics” (Med Chem Res, 2012):

Tests used:
[1] = system: Mus musculus; test: Antipsychotic activity in ip dosed Mus musculus Swiss albino (mouse) assessed as inhibition of […] -induced climbing behavior pretreated 10 min prior to 2.5 mg/kg, ip apomorphine administration measured at 5 min intervals for up to 20 min starting 10 min after apomorphine challenge; format: functional; conditions: route intraperitoneal
[2] = system: Mus musculus; test: Induction of catalepsy in ip dosed Mus musculus albino (mouse) measured at 30 min interval until 120 min and at the end of 240 min; format: organism-based; conditions: in vivo
[3] = system: Mus musculus; test: Antipsychotic activity in ip dosed Mus musculus Swiss albino (mouse) assessed as inhibiton of 5-HTP-induced head twitches pretreated 30 min before 50 mg/kg, sc 5-HTP administration measured at 10 min intervals for 30 min, starting 20 min after 5-HTP challenge; format: functional

Structure (SMILES) | ED50 [1] [mg/kg] | ED50 [2] [mg/kg] | ED50 [3] [mg/kg]
NC(=O)c1ccccc1OCCN1CCN(c2ccccc2)CC1 | 35.3 | 50 | 30
Cc1cccc(N2CCN(CCOc3ccccc3C(N)=O)CC2)c1 | 40 | 70 | > 20
Cc1ccc(N2CCN(CCOc3ccccc3C(N)=O)CC2)cc1 | 40.5 | > 80 | 27.2
COc1ccccc1N1CCN(CCOc2ccccc2C(N)=O)CC1 | 40 | 100 | 10
COc1cccc(N2CCN(CCOc3ccccc3C(N)=O)CC2)c1 | > 40 | > 80 | 25
NC(=O)c1ccccc1OCCN1CCN(c2ccccc2Cl)CC1 | > 40 | > 80 | > 20
NC(=O)c1ccccc1OCCCN1CCN(c2ccccc2)CC1 | > 40 | > 60 | > 20
COc1ccccc1N1CCN(CCCOc2ccccc2C(N)=O)CC1 | 50 | > 60 | 18.2
NC(=O)c1ccccc1OCCCCN1CCN(c2ccccc2)CC1 | > 40 | > 60 | > 40
COc1ccccc1N1CCN(CCCCOc2ccccc2C(N)=O)CC1 | 50.8 | > 70 | > 40
CN1CCN(C2=Nc3cc(Cl)ccc3Nc3ccccc32)CC1 [CLOZAPINE] | 8.7 |  | 2.8
